“Also recorded” adds a separate entry of the source.
Tests used:
[1] = tested on: platelet aggregation; assay: In vitro activity screening: platelet aggregation; format: cell-based
[2] = tested on: blood coagulation; conditions: single compounds; cited from earlier work
[3] = tested on: artery-vein bypass thrombosis; assay: Artery-vein bypass thrombosis (Example 1); format: in vivo, Wistar rats; conditions: 40 mg/Kg gastric once per day 7 days; bypass 15 min
Method: The pipe was taken down after 15 min, thrombus was taken out, rolled on a wet filter paper, residual blood was removed, placed on a parchment paper and weighed to obtained its wet weight. Then, it was placed in a drying oven and dried at 60° C. for 1 h to reach a constant weight, cooled and weighed to obtain the dry weight of thrombus.

[4] = tested on: platelet aggregation induced by ADP; assay: ADP-induced maximum platelet aggregation rate after gastric administration (Example 1); format: in vivo, Wistar rats; conditions: 40 mg/Kg gastric once per day 7 days; blood 1 h after last dose; ADP 20 μM
Method: Wistar rats, after 1 h of administration on the 7th day, were anesthetized by intraperitoneal injection of pentobarbital sodium (40-60 mg/kg), blood samples were collected from hearts, anti-coagulated with 3.8% sodium citrate (volume ratio: 1:9). Centrifugation was performed under 800 rpm and room temperature for 10 min to separate platelet-rich plasmas (PRP), then centrifugation was performed again under 3000 rpm and room temperature for 20 min to separate platelet-poor plasmas (PPP). Counting was performed by using F-820 blood cell counter, and PRP was adjusted with PPP to have a concentration of 3.0×10^11/L.
(§1) Chronolog platelet aggregation analyzer test: Platelet suspension was adjusted with plasma to have a concentration of 3.0×10^11/L, the platelet to aggregation analyzer was turned on and pre-warmed for 30 min, and PPP was used as a blank control to adjust transmittance to be 100%. 450 μL of platelet suspension were taken, stirred with a stir bar and pre-warmed at 37° C. for 3 min, and separately added with inducing agent (50 μL) ADP agent (final concentration: 20 μM), then 5 min diagram was recorded, and aggregation rates at 1 min, 3 min and 5 min and the maximum aggregation rates were read.
Blood samples were collected from heart of anaesthetized mice after 1 h of the last gastric administration of timosaponins, and analyzed to determine the rates of platelet aggregation induced by ADP (20 μM) after administration.

[5] = tested on: human platelet aggregation; conditions: single compounds; cited from earlier work
[6] = tested on: caudal vein bleeding; assay: Caudal vein bleeding time in mice; conditions: 40 mg/Kg gastric twice per day 5 days, test 1 h after dose on 6th day
Method: Mice were randomly divided into 7 groups: control group, aspirin group (ASP,40 mg/Kg), BII group (40 mg/Kg), AIII group (40 mg/Kg), 1:1 group (weight ratio of AIII to BII, 40 mg/Kg), 1:3 group (weight ratio of AIII to BII, 40 mg/Kg), 3:1 group (weight ratio of AIII to BII, 40 mg/Kg). Continuous gastric administration was performed for 5 days, twice per day, and the experiments were conducted after 1 h of the administration on the 6th day. The control group was administered with physiological saline of the same volume. All drug ratios were AIII to BII.
Mice were anesthetized with pentobarbital sodium (40-60 mg/kg), placed on a worm and comfortable pad, a tail tip was cut at a place where the tail of mice had to a diameter of 2.25-2.5 mm, and immediately placed in PBS (37° C.), timing started. Hemostatic time and re-bleeding time within 10 min were observed, and the bleeding volume of mice was presumed by hemoglobin volume.

[7] = tested on: thrombotic agent consisting of collagen and adrenalin; assay: Lethal time in mice by caudal vein injection of collagen; format: in vivo, Kunming mice; conditions: 40 mg/Kg gastric twice per day 5 days, test 1 h after dose on 6th day; observed within 10 min
Method: Mice were fixed on mice-fixed frame, and thrombotic agent (100 μg/mouse) consisting of collagen (0.5 mg/kg) and adrenalin (60 ug/kg) were administered by caudal vein injection. The symptoms, symptom occurrence time, and the lethal time in mice were observed within 10 min, and mice […] after 10 min were deemed as survival.

[8] = tested on: jugular artery-vein bypass thrombosis; assay: Artery-vein bypass thrombosis in rats (Example 3); format: in vivo, Wistar rats; conditions: aspirin 40 mg/kg gastric once per day 7 days; bypass 20 min
Method: Then, it was placed in a drying oven and dried at 60° C. for 1 h to reach a constant weight, cooled and weighed to obtain the dry weight of thrombus. […] The aspirin positive control group gave thrombus dry and wet weights slightly higher than those of the large dose group, and had significant difference from the control group.

[9] = tested on: ADP-induced platelet aggregation; assay: ADP-induced platelet aggregation rate in rats after gastric administration (Example 3); format: in vivo, Wistar rats; conditions: aspirin 40 mg/kg gastric once per day 7 days; ADP 20 μM; in %
Method: Wistar rats were randomly divided into 5 groups, i.e., blank control group, aspirin 40 mg/kg group, the present pharmaceutical composition 10 mg/kg, 20 mg/kg and 40 mg/kg groups, the animals of the groups were subjected to continuous gastric administration for 7 days, once per day, dose volume was 10 mL/kg, operation was conducted after 1 h of administration on the 7th day, and the blank control was administered with distilled water of the same volume. […]
as §1, with “platelet” for “platelet to”, “on,” for “on and pre-warmed for 30 min,”
The administration method of the present pharmaceutical composition and the grouping method were identical to that of the third part, blood samples were collected from hearts of rats on the 7th day after administration, and the ADP-induced platelet aggregation and bleeding/coagulation time (PT, TT and APTT) of the same batch were determined. […]

[10] = tested on: blood coagulation; assay: Blood coagulation parameters APTT, PT and TT in rats; format: in vivo, Wistar rats; conditions: aspirin group (40 mg/kg) gastric once per day 7 days
Method: Wistar rats were randomly divided into 5 groups, i.e., blank control group, aspirin 40 mg/kg group, the present pharmaceutical composition 10 mg/kg, 20 mg/kg and 40 mg/kg groups, the animals of the groups were subjected to continuous gastric administration for 7 days, once per day, dose volume was 10 mL/kg, operation was conducted after 1 h of administration on the 7th day, and the blank control was administered with distilled water of the same volume.
Blood samples were collected, plasmas were separated, and the operation was conducted according to the specification of kits.
The administration method of the present pharmaceutical composition and the grouping method were identical to that of the third part, blood samples were collected from hearts of rats on the 7th day after administration, and the ADP-induced platelet aggregation and bleeding/coagulation time (PT, TT and APTT) of the same batch were determined. […] The aspirin group gave a platelet aggregation rate lower than that of the control group, to but had no significant difference.

[11] = tested on: blood vessels; assay: In vitro activity screening: expanding blood vessels
[12] = tested on: rats with cerebral ischemia; conditions: rat, in vivo; cited from earlier work

Compound	inhibition of platelet aggregation in vitro [1]	extending blood coagulation time [2]	Thrombus dry weight [3]	Thrombus wet weight [3]	Maximum aggregation rate (%) [4]	activity against human platelet aggregation [5]	Bleeding volume [6]	Hemostatic time (s) ([6]; cut-off 600 s)	other results
C[C@H]1CC[C@@]2(OC1)O[C@H]1C[C@H]3[C@@H]4CC[C@@H]5C[C@@H](O[C@@H]6O[C@H](CO)[C@H](O)[C@H](O)[C@H]6O[C@@H]6O[C@H](CO)[C@@H](O)[C@H](O)[C@H]6O)CC[C@]5(C)[C@H]4CC[C@]3(C)[C@H]1[C@@H]2C [AIII, timosaponin AIII]	significantly inhibit; also recorded: significant inhibitive effect	significant activity	24.4 ± 6.30 mg	64.29 ± 22.58 mg	39.8 ± 5.0 %	significant activity	21.3 ± 29.6 µL	396.6 ± 208.9^★★★ s	
CC(=O)Oc1ccccc1C(=O)O [ASP, Aspirin]			25.5 ± 7.37 mg	79.74 ± 18.95 mg	40.8 ± 7.6 %		13.5 ± 13.8 µL	277.4 ± 188.5^★★★ s	Lethal time (s) [7]: 244.6 ± 195.3 ^★ s; Thrombus weight (mg) Dry weight [8]: 26.7 ± 6.4 mg; Thrombus weight (mg) Wet weight [8]: 79.7 ± 19.0 mg; PLT maximum aggregation rate [9]: 49.1 ± 4.8; Hemostatic time ([6]; cut-off 600 s, listed as aspirin): 277.4 ± 188.5 s; Coagulation time (s) APTT [10]: 17.50 ± 2.37 s; Coagulation time (s) PT [10]: 16.49 ± 2.08 s; Coagulation time (s) TT [10]: 28.98 ± 0.97 s
C[C@@H](CC[C@@]1(O)O[C@H]2C[C@H]3[C@@H]4CC[C@@H]5C[C@@H](O[C@@H]6O[C@H](CO)[C@H](O)[C@H](O)[C@H]6O[C@@H]6O[C@H](CO)[C@@H](O)[C@H](O)[C@H]6O)CC[C@]5(C)[C@H]4CC[C@]3(C)[C@H]2[C@@H]1C)CO[C@@H]1O[C@H](CO)[C@@H](O)[C@H](O)[C@H]1O [BII, timosaponin BII]	could not inhibit	significant activity	28.6 ± 7.82 mg	90.39 ± 29.59 mg	50.8 ± 6.7%	significant activity	10.7 ± 9.8 µL	325.1 ± 200.6^★★★ s	expanding blood vessels [11]: could expand blood vessels; also recorded: significant effect of expanding blood vessels; blood rheology [12]: significantly improve; cerebral edema [12]: alleviate; cerebral infarction area [12]: reduce; nervous symptoms of rats with cerebral ischemia [12]: significantly improve
CC1=C(CC[C@H](C)CO[C@@H]2O[C@H](CO)[C@@H](O)[C@H](O)[C@H]2O)O[C@H]2C[C@H]3[C@@H]4CC[C@@H]5C[C@@H](O[C@@H]6O[C@H](CO)[C@H](O)[C@H](O)[C@H]6O[C@@H]6O[C@H](CO)[C@@H](O)[C@H](O)[C@H]6O)CC[C@]5(C)[C@H]4CC[C@]3(C)[C@@H]12 [BIII]		significant activity				significant activity			
CO[C@]1(CC[C@H](C)CO[C@@H]2O[C@H](CO)[C@@H](O)[C@H](O)[C@H]2O)O[C@H]2C[C@H]3[C@@H]4CC[C@@H]5C[C@@H](O[C@@H]6O[C@H](CO)[C@H](O)[C@H](O)[C@H]6O[C@@H]6O[C@H](CO)[C@@H](O)[C@H](O)[C@H]6O)CC[C@]5(C)[C@H]4CC[C@]3(C)[C@H]2[C@@H]1C [BI]		significant activity				significant activity			
timosaponins Ia		significant activity				significant activity			
